The test system of assay [1] is BIC-induced clonic and tonic seizures. Description: Timed i.v. bicucculine (BIC) infusion seizure threshold test. Type of assay: in vivo. To be noted: male ICR mice. The protocol:
(§1) Male ICR mice (Harlan Laboratories BV, Netherlands, ICR (CD-1)) weighing 23-25 g were housed under standard conditions (21-23° C., 50%±10% relative humidity, 12 h light-dark cycle) with unlimited access to standard food (R70 diet, Lactamin AB, Sweden) and water. All experimental procedures were carried out in accordance with guidelines of the EU Directive 2010/63/EU and were approved by the Ethics Council of Animal Protection at the Veterinary and Food Service, Riga, Latvia.
(§2) To accurately detect even slight modulatory effects on convulsive tendencies, we employed the more sensitive intravenous (i.v.) administration route of pentylenetetrazol (PTZ) administration (Loscher W, Honack D, Fassbender C P, Nolting B (1991). The role of technical, biological and pharmacological factors in the laboratory evaluation of anticonvulsant drugs. III. Pentylenetetrazole seizure models. Epilepsy Res 8:171-189; Mandhane S N, Aavula K, Rajamannar T (2007). Timed pentylenetetrazol infusion test: a comparative analysis with s.c.PTZ and MES models of anticonvulsant screening in mice. Seizure 16:636-644) and used bicucculine (BIC) to inhibit the GABA pathway and to induce seizures (Meldrum B S (1975). Epilepsy and gamma-aminobutyric acid-mediated inhibition. Int Rev Neurobiol 17:1-36.). Chemoconvulsant-induced clonic and tonic seizures were initiated by inserting a 30-gauge needle into the tail vein of mice and infusing PTZ 1% or BIC 0.01% at a constant rate of 10 μl/1 s to restrained animals. Infusion was halted when forelimb clonus followed by tonic seizures of the full body were observed. Minimal doses of PTZ or BIC (mg/kg of mouse weight) necessary to induce clonic and tonic seizures were considered as an index of seizure threshold.
(§3) 2-(5S-Methyl-2-oxo-4R-phenyl-pyrrolidin-1-yl)-acetamide (E1R) was administered i.p. at doses of 10 and 50 mg/kg. The test session was started 60 min after the administration of E1R or saline.

The test system of assay [2] is PTZ-induced clonic and tonic seizures. As to the kind of experiment: Timed i.v. pentylenetetrazol (PTZ) infusion seizure threshold test. Type of assay: in vivo. To be noted: male ICR mice. The method, then: as §1, §2, §3
The mark [3] stands for this setting: E1R 10 mg/kg i.p. 60 min before 0.01% BIC i.v. infusion.
Where [4] appears, read: E1R 50 mg/kg i.p. 60 min before 0.01% BIC i.v. infusion.
[5] abbreviates: E1R 10 mg/kg i.p. 60 min before 1% PTZ i.v. infusion.
Setting [6] is: E1R 50 mg/kg i.p. 60 min before 1% PTZ i.v. infusion.

Take `C[C@H]1[C@@H](c2ccccc2)CC(=O)N1CC(N)=O` [E1R, 2-(5S-Methyl-2-oxo-4R-phenyl-pyrrolidin-1-yl)-acetamide]: the results for the “Dose of BIC, mg/kg ± SEM, Clonic seizure (threshold)” value in assay [1] (setting [3]) and in assay [1] (setting [4]) were 0.42 ± 0.02 mg/kg and 0.48 ± 0.03 mg/kg, respectively. Moreover, the results for the “Dose of BIC, mg/kg ± SEM, Tonic seizure (threshold)” value in assay [1] (setting [3]) and in assay [1] (setting [4]) were 0.88 ± 0.08 mg/kg and 1.15 ± 0.09 mg/kg, respectively. For the same compound, the “Clonic and tonic seizures-inducing doses of BIC, change versus saline (in words)” value in assay [1] (E1R 50 mg/kg i.p.) is on record as “significant increased”. In addition, the “Dose of PTZ, mg/kg ± SEM, Clonic seizure (threshold)” value was 27 ± 2 mg/kg in assay [2] (setting [5]) and 30 ± 1 mg/kg in assay [2] (setting [6]). Also, the “Dose of PTZ, mg/kg ± SEM, Tonic seizure (threshold)” value is listed as 64 ± 6 mg/kg in assay [2] (setting [5]) and 80 ± 8 mg/kg in assay [2] (setting [6]). Also, in assay [2] (E1R 10 mg/kg i.p.), the “Induction of tonic seizures by PTZ, effect versus saline (in words)” value was “significantly reduced the induction of tonic seizures”. For the same compound, the “Clonic and tonic seizures-inducing doses of PTZ, change versus saline (in words)” value in assay [2] (E1R 50 mg/kg i.p.) was “significant increased”.

Values taken from patent US10105348B2, “Use of 2-(5S-methyl-2-oxo-4R-phenyl-pyrrolidin-1-yl)-acetamide in the treatment of seizures” (Latvian Institute of Organic Synthesis, priority 2015, dated 2018).
